Key:
[1] = Physical stability, phase separation checked with the naked eye; format: physicochemical; conditions: solvent screened in cream composition
From the text: This is a test to discover an optimized processing method for obtaining a cream formulation.

[2] = Screening of excipient suitability: zileuton with excipient, stability at 50° C.; format: physicochemical; conditions: changes of TRS % up to 4 weeks at 50° C.
Method: Suitability of components generally used in cream formulation with respect to zieluton was screened, prior to preparing a zieluton cream formulation. […] That is, the stability of excipient at 50° C. was tested.

| Structure (SMILES) | Physical stability of cream made with this solvent [1] | Suitability of excipient with respect to zileuton [2] |
| --- | --- | --- |
| CN1CCCC1=O [NMP, N-methyl pyrrolidone] | bad physical stability |  |
| OCc1ccccc1 [benzyl alcohol] | bad physical stability |  |
| CCO [ethanol] | deteriorates physical stability |  |
| CCCCCCCCCCCCCCCCCCO [stearyl alcohol] |  | suitable |

— US9855243B2, “Topical anti-inflammatory pharmaceutical composition with zileuton cream formulation” (Qurient Co., Ltd., priority 2013, dated 2018)
